Measurements: patent publication US7504411B2, “2,3,6-Trisubstituted-4-pyrimidone derivatives” (Mitsubishi Tanabe Pharma Corporation, priority 2003, dated 2009)

Molecular target: T1, bovine cerebral TPK1 (Bos taurus, UniProt A0A3Q1MT31)
T1 construct: Phosphorylation by Bovine Cerebral TPK1; from tissue; host or cells: bovine brain (cerebrum)
Assay: Inhibitory activity against P-GS1 phosphorylation by bovine cerebral TPK1
Format: biochemical
Details: 41.7 μM [γ-32P]ATP, 25° C., 2 hours
Protocol: Inhibitory Activity of the Medicament of the Present Invention against P-GS1 Phosphorylation by Bovine Cerebral TPK1
A mixture containing 100 mM MES-sodium hydroxide (pH 6.5), 1 mM magnesium acetate, 0.5 mM EGTA, 5 mM β-mercaptoethanol, 0.02% Tween 20, 10% glycerol, 12 μg/ml P-GS1, 41.7 μM [γ-^32P] ATP (68 kBq/ml), bovine cerebral TPK1 and a compound shown in Table (a final mixture contained 1.7% DMSO deriving from a solution of a test compound prepared in the presence of 10% DMSO) was used as a reaction system. The phosphorylation was started by adding ATP, and the reaction was conducted at 25° C. for 2 hours, and then stopped by adding 21% perchloric acid on ice cooling. The reaction mixture was centrifuged at 12,000 rpm for 5 minutes and adsorbed on P81 paper (Whatmann), and then the paper was washed four times with 75 mM phosphoric acid, three times with water and once with acetone. The paper was dried, and the residual radioactivity was measured using a liquid scintillation counter.

T1 sequence (A0A3Q1MT31 1-419): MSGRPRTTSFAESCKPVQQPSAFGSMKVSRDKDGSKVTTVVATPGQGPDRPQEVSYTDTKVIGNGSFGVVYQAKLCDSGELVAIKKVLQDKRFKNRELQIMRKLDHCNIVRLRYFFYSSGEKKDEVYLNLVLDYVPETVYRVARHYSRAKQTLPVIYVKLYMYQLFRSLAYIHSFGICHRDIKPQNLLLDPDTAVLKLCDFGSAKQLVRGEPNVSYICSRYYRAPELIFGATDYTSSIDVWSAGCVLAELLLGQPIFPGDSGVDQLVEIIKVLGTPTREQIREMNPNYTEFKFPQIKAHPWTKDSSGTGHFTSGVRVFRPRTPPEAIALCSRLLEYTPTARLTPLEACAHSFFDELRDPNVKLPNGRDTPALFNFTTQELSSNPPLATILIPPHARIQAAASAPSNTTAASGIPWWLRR

Row | IC50 [µM] | SMILES
1 | 0.216 | COc1cc(F)ccc1C1CN(c2nc(-c3ccncn3)cc(=O)n2C)CCN1Cc1ccccc1 (stereo not drawn) [YA0864]
2 | 0.018 | Cn1c(N2CCNC(c3ccccc3)C2)nc(-c2ccncc2)cc1=O (stereo not drawn) [XA361]
3 | 0.23 | Cn1c(N2CCCC(C#N)(c3ccccc3)C2)nc(-c2ccncc2)cc1=O (stereo not drawn) [XB80]
